Consider nine compounds from patent publication US5493007A, “Platelet aggregation inhibitors having high specificity for GPIIBIIIA” (Genentech, Inc., priority 1994, dated 1996).

Where a SMILES comes first, the peptide text is derived from it. Bridges are numbered along the chain shown (N, C = ends). [ ]: non-standard residue; d: D form. Pen = CC(C)(S)[C@H](N)C(=O)O Bounds are passed on as bounds.

In data set [1] the test system is platelet rich plasma (PRP). The experiment in a line: Rabbit ex-vivo platelet aggregation (XPA), ADP-induced. Type of data set: in vivo. The conditions noted are these: Example 1. Here is the method: Catheters are flushed and locked after every sample.
[…] of PRP is placed in a disposable glass cuvette with a stir bar. The cuvette is placed in the temperature regulated light path of a light transmittance aggregometer (Chrono-log) and equilibrated to a 37° C. Baseline transmittance is recorded for 30 seconds, after which […] of ADP (1 mM) is added and the change in transmittance recorded. The maximum change from baseline (dT) is noted for each sample. The extent of inhibition of XPA that is produced by an inhibitor is calculated for each animal as follows: Mean dTs are calculated for the pre and post infusion values, and then, percent inhibition is calculated as (1-dt (post)/ddt (pre))×100.

Data set [2] deals with New Zealand White rabbits. The data set can be described thus: Rabbit cutaneous bleeding time (CBT). Conditions: for Rabbit BT Ratio: Example 1, at the % P.A. inhibition given.
Experimental: Unanesthetized male New Zealand White rabbits (2.5-3.5 kg) are placed in a standard rabbit restrainer. Ears are shaved and a 20 G Teflon catheter with flowswitch (Viggo) is placed in the medial artery, flushed with saline and locked with 1 ml of heparinized saline (10 m/ml). A 22 G catheter (Abbott) fitted with an injection cap (Medex) is placed in the marginal vein of the same ear. Saline or a GP IIb IIIa receptor antagonist, at a concentration of 1 to 3 mg/ml, is infused via the venous catheter. At time 0, 41% of the dose is given as a bolus over 2 minutes. The remainder is continuously infused over the following 60 minutes. Blood samples (3.2 ml) are collected into syringes without needles via the arterial catheter at -10, -5, 10, 45, and 60 minutes. The first 0.5 ml is discarded and the following 2.7 ml is collected directly into a syringe containing 0.3 ml of 3.8% sodium citrate. The sample is divided into 1.5 ml aliquots and centrifuged at room temperature for 5 seconds at 12,000 G. The resulting platelet rich plasma (PRP) is used to measure ex-vivo platelet aggregation (XPA). At -10 and 60 minutes an additional 1 cml sample is drawn for an automated blood count (Baker instruments). Catheters are flushed and locked after every sample.
CBT is measured at -10, -5, 10, and 45 minutes on the opposite ear, using an automated incision-making instrument (Surgicutt®, ITD). An incision (5mm×1 mm deep) is made on the dorsal surface of the ear at sites not supplied by major blood vessels. Blood is blotted away with absorbent paper placed near the incision site, every 2 to 15 seconds, to a maximum of 15 minutes. Cessation of bleeding is defined as no blood forming at the incision site for 15 seconds. The range of duplicate CBT in 40 normal rabbits was 0.88 to 3.38 minutes.
For data set [3], the target named is T1, GP IIb IIIa (Homo sapiens, UniProt P05106+P08514). The conditions noted are these: Kirchofer et al. 1990; versus αvβ3 and α5β1; cited from earlier work.
The target in the next data set is vitronectin receptor (Homo sapiens, UniProt P05106+P06756). Conditions: cited from earlier work.
Data set [4] has as its target T2, Fibronectin Receptor (Homo sapiens, UniProt P05556+P08648). The conditions noted are these: Pierschbacher et al. 1987; cited from earlier work.
The target in data set [5] is T3, Vitronectin Receptor (αvβ3) (Homo sapiens, UniProt P05106+P06756).
T3 construct: Human vitronection receptor (VnR) is purified from human placenta; from tissue; host or cells: human placenta
The data set can be described thus: Human Vitronectin-Vitronectin Receptor (αvβ3) ELISA Assay. Conditions: purified human αvβ3, vitronectin-coated plates; read-out: ELISA IC50 Vitronectin VnR. Type of data set: binding. From the text:
Human vitronectin (Vn) is isolated from human plasma and purified by affinity chromatography by the method of Yatohgo et. al., (Cell Structure and Function 13:281-292 [1988]).
Human vitronection receptor (VnR) is purified from human placenta by the method of Pytela et al., (Methods Enzymol., 144:475 [1987]). Alternatively the αvβ3 receptor can be purified from some cell lines (e.g., human embryonic kidney 293 cells) transfected with DNA sequences for both the αv and β3 subunits. The subunits are purified by employing octylglucoside extraction followed by Con-A, Heparin-Sepharose, and S-300 Chromatography.
Anti-GP IIb IIIa monoclonal antibodies specific for human GP IIIa are prepared by the method of Newman et al. (Blood, 65:227-232 [1985]), or a similar procedure. This mouse Mab is specific for the β3 subunit of the vitronectin receptor.
Rabbit Fab 2 anti-mouse Fc fragment horse radish peroxidase conjugate (anti-MuFc HRP) is obtained from PelFreeze (cat. no. 715305-1).
Maxisorp microtiter plates are coated with 2 μg/ml human vitronectin dissolved in PBS ([…]) and stored overnight at 4° C. The plates are washed two times with PBS-0.05% Tween-20 (wash buffer) and blocked by incubating with about 150 μl/well of assay buffer (1%, BSA [RIA grade or better] in 50 mM Tris-HCl, 100 mM NaCl, 1 mM MgCl2, CaCl2, MnCl2 pH 7.4) for 60 minutes. Dilutions of standards are prepared and putative inhibitors (Table 3) are dissolved in assay buffer. The blocked plates are emptied and 25 μl/well of inhibitor or standard solution is added to each well. Twenty-five μl of a 30 μg/ml solution of purified αvβ3 in assay buffer is pipetted into the coated plate. The final concentration of receptor in the assay well is about 15 μg/ml. The plate is incubated on a shaker for 60 minutes. Meanwhile, for each microtite plate, 6 ml buffer solution containing 1.5 μg/ml of mouse monoclonal antibody specific for β3 is prepared. To this solution is added μl of the secondary antibody, which is anti-mouse-Fc-HRP antibody conjugate. For example, for one plate, prepare 6 ml of a 1.5 μg/ml mouse Mab solution to which is added 1 μl of anti-mouse-Fc-HRP antibody stock, (this represents a 1:6000 dilution of the antibody - HRP conjugate). This mixture is allowed to incubate during the receptor-inhibitor incubation. The assay plates are washed 4 times with PBS-Tween and 50 μl/well of the antibody mixture is then pipetted into the plate for a 60 minute incubation. The plate is washed 4 times and the color reaction is developed with 50 μl/well of 0.67 mg/ml o-phenyldiamine in PBS containing 0.012% H2 O2. Alternatively, 16 mM citric acid, 50 mM Na2 PO4 at pH 5.0 can be used as a substrate buffer. The reaction is stopped with 50 μl/well 1M H2 SO4. The plates are read at 492-405 nm and the data analyzed by four-parameter fit.
Background: An ELISA detects its analyte on a solid surface through an enzyme-linked reagent.

The target of data set [6] is human platelet rich plasma (PRP) (Homo sapiens, UniProt P05106+P08514). The experiment in a line: In Vitro Human Platelet Aggregation Assay. Format: cell-based. The conditions noted are these: human PRP; read-out: Human Platelet Aggregation IC50. Here is the method:
Platelet aggregation assays are performed in human platelet rich plasma (PRP). Fifty milliliters of whole human blood (9 parts) is drawn on 3.6% sodium citrate (1 part) from a donor who has not taken aspirin or related medications for at least two weeks. The blood is centrifuged at 160×g for 10 minutes at 22° C. and allowed to stand for 5 minutes after which the PRP is decanted. Platelet poor plasma (PPP) is isolated from the remaining blood after centrifugation at 2000×g for 25 minutes. The platelet count of the PRP is diluted to about 300,000 platelets per microliter with PPP.
A 225 μl aliquot of PRP plus 25 μl of either a dilution of the test inhibitor sample or a control (PBS) is incubated for 5 minutes in a Chrono-log Whole Blood Aggregometer at 25° C. An aggregating agent (collagen, 1 μg/ml; U46619, 100 ng/ml; or ADP, 17 μM) is added and the transmission is recorded.

Data set [7] concerns the target T1, GP IIb IIIa. The data set can be described thus: GP IIb IIIa -von Willebrand factor (vWF) ELISA Assay. Type of data set: binding. Further details: GP IIb IIIa, prepared by the method of Fitzgerald et al; from tissue. The conditions noted are these: GP IIb IIIa-coated plates, vWF; read-out: ELISA IC50 GPIIb IIIa vWF. Here is the method: Microtiter plates are coated with 1.0 μg/ml GP IIb IIIa, prepared by the method of Fitzgerald et al., (Anal. Biochem. 151:169-177 [1985]) and allowed to incubate overnight in coat buffer. The plates are then washed three times in wash buffer (0.05% Tween 20 in PBS) and 150 μl of assay buffer is added and allowed to incubate for 1-2 hours at room temperature on plate shaker. The plates are washed three times and 50 μl of 2x inhibitor in assay buffer (Assay buffer: 0.5% BSA/50 mM Tris, 100 mM NaCl, 1.0 mM CaCl2, 1.0mM MgCl2, 1.0 mM MnCl2; coat buffer is the same but without BSA) is added. Fifty μl of 4.0 μg/ml vWF (prepared as described by Ledford et al., Thrombosis and Haemostasis, 64(4): 569-575 [1990]) in assay buffer is then added and allowed to incubate for one hour at room temperature on plate-shaker. The plates are washed three times and the antibody mixture is added (1:5000 of mouse anti-vWF and 1:5000 of rabbit-anti-mouse-Fc-HRP, both commercially available) in assay buffer and incubated for 1 hour at room temperature on plate-shaker. Plates are again washed three times and 100 μl of substrate solution (10 mg OPD, 6.5 μl H2 O2, 15 ml phosphate citrate buffer) is added and incubated at room temperature. The color change of OPD/H2 O2 reagent is read at 492 nm with a 405 nm reference wavelength on the filter photometer.

In data set [8] the target is T2, Fibronectin Receptor. The data set can be described thus: Human Fibronectin-Fibronectin Receptor ELISA Assay. On the set-up: octylglucoside (OG) extracted human placenta; from tissue; host or cells: human placenta. Conditions: human placenta fibronectin receptor, fibronectin-coated plates; read-out: ELISA IC50 Fibronectin FnR. Type of data set: binding. As for the experimental part:
Fibronectin receptor is purified according to the procedures of Pytela et al., (Methods Enzymol. 144:475 […]). Briefly, fibronectin receptor is purified employing an Arg-Gly-Asp affinity chromatography from (100 mM) octylglucoside (OG) extracted human placenta. The OG extract is filtered over Sepharose 6B GRGDSPK column. The column is washed three times with three column volumes of Tris-buffered saline (TBS) TBS, 1 mM CaCl2, and 25 mM OG. The receptor is eluted with TBS, 20 mM EDTA, and 25 mM Octyl thioglucoside, and is stored in 1 mM CaCl2, 1 mM MgCl2, at -80° C.
Microtiter plates are coated with 110 μl human fibronectin (at 2 μg/ml) in TBS. Plates are washed three times with TBS containing 0.05% Tween 20. Test inhibitors are then added after washing in 10 microliter aliquots. The fibronectin receptor is added in 2-fold serial dilutions with TBS containing 20 mM octyl glucoside and 2 mM MnCl2. Plates are incubated three hours at room temperature, and washed with 200 μl TBS-Tween 20 buffer. 100 μl of affinity-purffied rabbit anti-human fibronectin receptor antibody is added to the wells and the plates are incubated two hours, washed twice with TBS-Tween and once with distilled water. Affinity-purified goat anti-rabbit IgG conjugated to horseradish peroxidase (100 μl) is added to each well followed by incubation for 60 minutes at room temperature. Plates are again washed twice with TBS-Tween and distilled water. 100 μl of substrate mixture (10 mg o-phenylenediamine in 25 ml 0.1M citrate-phosphate buffer, pH 5.0 6 μ30% H2 O2) is added to the plates and allowed to develop. The development process is stopped by adding 50 μl of 4N H2 SO4 to each well and read at […].

Data set [9] relates to New Zealand White rabbits. The experiment in a line: Rabbit peripheral blood flow and CBT, laser Doppler series. Type of data set: in vivo. The conditions noted are these: 1 mg intravenously over 2 minutes at 60 minutes, within 5 minutes, laser doppler probe. As for the experimental part: In an alternative series of experiments, (Table 2 ) PBF was measured quantitatively with a laser Doppler flow probe (Perimed). The probe was positioned securely over the vascular bed of one ear and flow monitored continuously. Each inhibitor was infused and CBT measured in the opposing ear. No arterial catheter was placed for blood sampling, consequently XPA was not measured in these animals.
As a positive control, epinephrine was infused intravenously (1 mg over 2 minutes.) at 60 minutes. The resulting vasoconstriction reduced flow to near 0 flow units within 5 minutes.

vitronectin receptor, sequence (P06756 31-889 limits assumed): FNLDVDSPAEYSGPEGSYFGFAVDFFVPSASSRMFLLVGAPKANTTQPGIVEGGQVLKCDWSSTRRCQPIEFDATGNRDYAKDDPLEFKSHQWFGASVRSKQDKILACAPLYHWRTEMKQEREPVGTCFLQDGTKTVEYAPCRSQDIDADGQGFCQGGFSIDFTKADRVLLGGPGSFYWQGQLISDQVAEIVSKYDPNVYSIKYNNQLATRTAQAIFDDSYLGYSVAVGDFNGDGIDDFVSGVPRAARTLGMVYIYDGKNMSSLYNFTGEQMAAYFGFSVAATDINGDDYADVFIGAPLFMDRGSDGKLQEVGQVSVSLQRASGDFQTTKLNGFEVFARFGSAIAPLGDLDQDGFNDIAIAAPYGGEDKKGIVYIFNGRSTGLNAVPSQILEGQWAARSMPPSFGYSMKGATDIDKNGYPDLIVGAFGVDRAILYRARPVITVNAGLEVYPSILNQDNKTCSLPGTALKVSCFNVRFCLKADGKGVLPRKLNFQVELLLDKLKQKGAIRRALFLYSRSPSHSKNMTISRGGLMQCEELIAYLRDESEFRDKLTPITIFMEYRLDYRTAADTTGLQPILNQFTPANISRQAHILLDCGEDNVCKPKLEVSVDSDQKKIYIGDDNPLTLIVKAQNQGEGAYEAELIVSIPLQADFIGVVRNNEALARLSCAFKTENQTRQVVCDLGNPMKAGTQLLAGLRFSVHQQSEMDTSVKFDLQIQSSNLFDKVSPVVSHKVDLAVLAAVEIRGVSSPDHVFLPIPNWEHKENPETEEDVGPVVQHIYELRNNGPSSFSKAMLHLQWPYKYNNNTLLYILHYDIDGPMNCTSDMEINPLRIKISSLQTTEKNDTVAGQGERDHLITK
vitronectin receptor, sequence (P06756 891-1048 partner limits assumed): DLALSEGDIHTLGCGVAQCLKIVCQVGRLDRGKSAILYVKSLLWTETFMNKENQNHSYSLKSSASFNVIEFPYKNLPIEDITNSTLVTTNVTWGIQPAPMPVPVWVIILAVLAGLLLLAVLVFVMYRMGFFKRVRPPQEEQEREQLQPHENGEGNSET
vitronectin receptor, sequence (P05106 27-788): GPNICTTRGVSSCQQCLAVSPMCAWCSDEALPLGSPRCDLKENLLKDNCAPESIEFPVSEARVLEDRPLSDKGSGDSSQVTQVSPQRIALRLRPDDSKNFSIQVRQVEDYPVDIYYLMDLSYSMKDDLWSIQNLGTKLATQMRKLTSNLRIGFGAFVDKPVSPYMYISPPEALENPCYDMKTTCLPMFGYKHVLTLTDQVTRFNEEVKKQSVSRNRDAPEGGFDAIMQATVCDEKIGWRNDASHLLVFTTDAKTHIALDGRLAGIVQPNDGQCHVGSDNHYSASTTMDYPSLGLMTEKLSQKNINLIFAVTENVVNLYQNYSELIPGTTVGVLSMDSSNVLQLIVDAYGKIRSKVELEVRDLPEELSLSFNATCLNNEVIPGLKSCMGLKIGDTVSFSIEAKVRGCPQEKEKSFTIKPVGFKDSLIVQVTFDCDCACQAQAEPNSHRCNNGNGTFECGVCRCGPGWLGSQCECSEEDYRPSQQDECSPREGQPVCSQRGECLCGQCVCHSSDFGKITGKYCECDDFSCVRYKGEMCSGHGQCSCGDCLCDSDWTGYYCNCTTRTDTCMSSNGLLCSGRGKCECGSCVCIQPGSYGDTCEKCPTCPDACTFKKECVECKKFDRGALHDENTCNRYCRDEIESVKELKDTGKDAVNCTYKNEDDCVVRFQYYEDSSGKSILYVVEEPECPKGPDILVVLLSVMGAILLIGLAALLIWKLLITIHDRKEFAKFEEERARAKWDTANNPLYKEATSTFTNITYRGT
T2 sequence (P08648 42-894 limits assumed): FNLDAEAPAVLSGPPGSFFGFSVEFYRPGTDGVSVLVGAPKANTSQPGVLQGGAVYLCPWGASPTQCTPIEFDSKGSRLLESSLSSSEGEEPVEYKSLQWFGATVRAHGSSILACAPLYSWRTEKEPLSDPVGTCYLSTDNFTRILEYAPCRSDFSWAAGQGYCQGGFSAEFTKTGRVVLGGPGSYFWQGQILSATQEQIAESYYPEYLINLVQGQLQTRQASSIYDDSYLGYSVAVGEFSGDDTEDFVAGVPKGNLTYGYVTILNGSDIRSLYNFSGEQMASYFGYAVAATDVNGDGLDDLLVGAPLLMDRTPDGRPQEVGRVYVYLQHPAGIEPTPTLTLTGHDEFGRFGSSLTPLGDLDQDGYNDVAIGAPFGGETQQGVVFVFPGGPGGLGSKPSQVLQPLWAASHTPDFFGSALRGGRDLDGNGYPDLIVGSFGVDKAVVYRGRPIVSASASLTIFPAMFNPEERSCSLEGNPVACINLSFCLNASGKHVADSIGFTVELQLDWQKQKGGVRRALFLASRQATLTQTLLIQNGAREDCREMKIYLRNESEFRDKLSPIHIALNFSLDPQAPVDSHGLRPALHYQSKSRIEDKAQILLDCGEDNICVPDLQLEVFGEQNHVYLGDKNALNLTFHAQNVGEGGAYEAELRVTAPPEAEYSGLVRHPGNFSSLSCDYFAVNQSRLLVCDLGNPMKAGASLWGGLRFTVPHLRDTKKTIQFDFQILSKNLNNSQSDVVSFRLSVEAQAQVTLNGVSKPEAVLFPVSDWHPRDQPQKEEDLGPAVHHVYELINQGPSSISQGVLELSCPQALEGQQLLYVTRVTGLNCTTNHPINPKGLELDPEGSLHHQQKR
T2 sequence (P08648 895-1049 partner limits assumed): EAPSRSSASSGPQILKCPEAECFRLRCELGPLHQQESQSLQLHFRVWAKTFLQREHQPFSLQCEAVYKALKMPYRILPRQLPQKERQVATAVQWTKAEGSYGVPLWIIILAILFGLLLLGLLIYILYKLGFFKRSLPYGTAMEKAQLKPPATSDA
T2 sequence (P05556 21-798): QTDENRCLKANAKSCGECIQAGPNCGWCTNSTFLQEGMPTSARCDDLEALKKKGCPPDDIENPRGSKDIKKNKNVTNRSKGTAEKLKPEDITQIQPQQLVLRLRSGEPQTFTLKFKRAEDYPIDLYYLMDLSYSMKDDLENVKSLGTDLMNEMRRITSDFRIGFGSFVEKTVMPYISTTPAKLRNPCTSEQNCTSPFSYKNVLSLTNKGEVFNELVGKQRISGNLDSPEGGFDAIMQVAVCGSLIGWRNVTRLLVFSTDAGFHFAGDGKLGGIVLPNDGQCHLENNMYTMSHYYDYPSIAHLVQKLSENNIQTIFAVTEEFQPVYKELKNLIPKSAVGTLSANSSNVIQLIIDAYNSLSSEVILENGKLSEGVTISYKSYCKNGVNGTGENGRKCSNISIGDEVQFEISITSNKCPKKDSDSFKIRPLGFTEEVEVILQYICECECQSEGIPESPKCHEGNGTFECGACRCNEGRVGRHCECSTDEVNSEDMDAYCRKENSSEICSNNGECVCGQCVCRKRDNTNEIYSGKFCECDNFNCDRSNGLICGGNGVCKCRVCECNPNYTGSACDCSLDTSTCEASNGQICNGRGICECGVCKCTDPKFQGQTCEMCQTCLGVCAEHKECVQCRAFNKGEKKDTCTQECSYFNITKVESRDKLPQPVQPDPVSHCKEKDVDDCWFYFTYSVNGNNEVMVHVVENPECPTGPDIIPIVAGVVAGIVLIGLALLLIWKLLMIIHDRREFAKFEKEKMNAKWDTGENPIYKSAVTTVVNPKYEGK
T3 sequence (P06756 31-889 limits assumed): as the sequence (P06756 31-889 limits assumed) above
T3 sequence (P06756 891-1048 partner limits assumed): as the sequence (P06756 891-1048 partner limits assumed) above
T3 sequence (P05106 27-788): as the sequence (P05106 27-788) above

Regarding `CC1(C)SCC(=O)N[C@H](Cc2ccc(O)cc2)C(=O)N[C@@H](CCCCN)C(=O)NCC(=O)N[C@@H](CC(=O)O)C(=O)N[C@@H]1C(=O)O` [7/47] ({CH2CO}-[dY]KGD[Pen]-OH; thioether N-5), the “Rabbit % P.A. Inhibition (ex vivo)” value in data set [1] is given as 96%. The “cutaneous bleeding time, result in words” value in data set [2] was “prolongation of bleeding time in vivo in both the rabbit and dog model”. In [2] (rabbit), the “Rabbit BT Ratio” value is 8.57. The “increase of cutaneous bleeding time compared to the undosed animal” value in data set [2] (rabbit, dose sufficient to achieve about 97% inhibition of platelet aggregation) was found to be 8.6 times.

For the compound cyclic-2,10-GPenGHRGDLRCA, the “integrin selectivity, in words” value with GP IIb IIIa [3] is recorded as “preferentially inhibits the binding of GP IIb IIIa to fibrinogen”.

In the case of `N=C(N)NCCC[C@H](NC(=O)[C@@H]1C[S+]([O-])CC(=O)N[C@H](Cc2ccc(O)cc2)C(=O)N[C@@H](CCCNC(=N)N)C(=O)NCC(=O)N[C@@H](CC(=O)O)C(=O)N1)C(N)=O` (single isomer, unassigned) [7/32], in data set [1], the “Rabbit % P.A. Inhibition (ex vivo)” value is on record as 99%. In addition, the “Rabbit BT Ratio” value in data set [2] (rabbit) stood at 1.17.

On to cyclic-1,7-VRGDSPDG, for which, at vitronectin receptor (Kirchofer et al. 1990), the “integrin selectivity, in words” value is given as “preferentially inhibited αvβ3 (vitronectin receptor) binding to vitronectin”.

Gly-Pen-Gly-Arg-Gly-Asp-Ser-Pro-Cys-Ala: the “effectiveness at inhibiting the vitronectin-vitronectin receptor interaction, cyclized versus uncyclized peptide” value with vitronectin receptor (Pierschbacher et al. 1987) is listed as 10 times. Moreover, in the data set with Fibronectin Receptor [4], the “inhibition of the fibronectin-fibronectin receptor interaction, in words” value was “ineffective”.

As for `N=C(N)NCCC[C@@H]1NC(=O)[C@@H](Cc2ccc(O)c(Br)c2)NC(=O)C[S+]([O-])C[C@@H](C(=O)N[C@@H](CCCCN)C(N)=O)NC(=O)[C@H](CC(=O)O)NC(=O)CNC1=O` (single isomer, unassigned) [7/36], the “Rabbit % P.A. Inhibition (ex vivo)” value in data set [1] is 91%. The “Rabbit BT Ratio” value in [2] (rabbit) worked out at 0.77.

Regarding `N=C(N)NCCC[C@@H]1NC(=O)[C@@H](Cc2ccc(O)cc2)NC(=O)C[S+]([O-])C[C@@H](C(=O)N[C@H](CCCNC(=N)N)C(N)=O)NC(=O)[C@H](CC(=O)O)NC(=O)CNC1=O` (single isomer, unassigned) [7/34], the “Rabbit % P.A. Inhibition (ex vivo)” value in data set [1] was 64%. Besides, in data set [2] (rabbit), the “Rabbit BT Ratio” value is 0.94.

With `NCCCC[C@@H]1NC(=O)[C@@H](Cc2ccc(O)cc2)NC(=O)C(c2ccccc2)SC[C@@H](C(=O)O)NC(=O)[C@H](CC(=O)O)NC(=O)CNC1=O` (single isomer, unassigned) [7/45, cyclo-S-phenylacetyl-dTyr--Lys--Gly--Asp--Cys--OH], the 50% inhibitory concentration (IC50) in data set [5] is greater than 20000 nM; in [6], 220 nM; on GP IIb IIIa [7], 1 nM; at Fibronectin Receptor [8], greater than 10000 nM. The “Rabbit BT Ratio” value in data set [2] (rabbit) came to 4.47.

On to `CNC[C@H](O)c1ccc(O)c(O)c1` [epinephrine], for which the “peripheral blood flow after positive control” value in [9] is reported as roughly 0 flow units.

The term IC50 denotes the concentration that gives 50% inhibition.
